Experimental data published in the supplement of paper PMC10307832.

How the values were obtained:
Test in all cases: relative viability (nuclei count vs DMSO), 5 days (fraction); higher = more cells survive
Vismodegib + Crizotinib = compound: CS(=O)(=O)c1ccc(C(=O)Nc2ccc(Cl)c(-c3ccccn3)c2)c(Cl)c1 [Vismodegib] + C[C@@H](Oc1cc(-c2cnn(C3CCNCC3)c2)cnc1N)c1c(Cl)ccc(F)c1Cl [Crizotinib] (partner 1 µM)
Method in brief: (§1)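 For relative viability, nuclei counts in treated wells were divided by those in vehicle wells. Lung cancer cell lines had been pin-tool dosed in 1536-well plates the day after seeding and cultured for 5 days, then fixed and stained in one step (final 0.05% Triton X-100, 1% formaldehyde, 1 ug/ml Hoechst) and imaged at 4×. Doses were one drug alone or a fixed anchor-drug dose plus five library-drug doses (not always all listed) in √10 steps, and values are duplicate-plate medians.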

Vismodegib + Decitabine = compound: CS(=O)(=O)c1ccc(C(=O)Nc2ccc(Cl)c(-c3ccccn3)c2)c(Cl)c1 [Vismodegib] + Nc1ncn([C@H]2C[C@H](O)[C@@H](CO)O2)c(=O)n1 [Decitabine] (partner 2 µM)
Method in brief: as §1

Ruxolitinib + Vorinostat = compound: N#CC[C@H](C1CCCC1)n1cc(-c2ncnc3[nH]ccc23)cn1 [Ruxolitinib] + O=C(CCCCCCC(=O)Nc1ccccc1)NO [Vorinostat] (partner 1 µM)
Method in brief: as §1

Vismodegib + Vorinostat = compound: CS(=O)(=O)c1ccc(C(=O)Nc2ccc(Cl)c(-c3ccccn3)c2)c(Cl)c1 [Vismodegib] + O=C(CCCCCCC(=O)Nc1ccccc1)NO [Vorinostat] (partner 1 µM)
Method in brief: as §1

Cell Line | relative viability (Vismodegib + Crizotinib; first compound 0.08 µM) | relative viability (Vismodegib + Crizotinib; first compound 0.253 µM) | relative viability (Vismodegib + Crizotinib; first compound 0.8 µM) | relative viability (Vismodegib + Crizotinib; first compound 2.53 µM) | relative viability (Vismodegib + Crizotinib; first compound 8 µM) | relative viability (Vismodegib + Decitabine; first compound 0.08 µM) | relative viability (Vismodegib + Decitabine; first compound 0.253 µM) | relative viability (Vismodegib + Decitabine; first compound 2.53 µM) | relative viability (Vismodegib + Decitabine; first compound 8 µM) | relative viability (Ruxolitinib + Vorinostat; first compound 0.08 µM) | relative viability (Ruxolitinib + Vorinostat; first compound 0.253 µM) | relative viability (Ruxolitinib + Vorinostat; first compound 0.8 µM) | relative viability (Ruxolitinib + Vorinostat; first compound 2.53 µM) | relative viability (Ruxolitinib + Vorinostat; first compound 8 µM) | relative viability (Vismodegib + Decitabine; first compound 0.8 µM) | relative viability (Vismodegib + Vorinostat; first compound 0.08 µM) | relative viability (Vismodegib + Vorinostat; first compound 0.253 µM) | relative viability (Vismodegib + Vorinostat; first compound 0.8 µM) | relative viability (Vismodegib + Vorinostat; first compound 2.53 µM) | relative viability (Vismodegib + Vorinostat; first compound 8 µM)
A549 | 0.711 | 0.759 | 0.796 | 0.672 | 0.686 | 0.268 | 0.228 | 0.263 | 0.205 |  |  |  |  |  |  |  |  |  |  | 
NCI-H650 | 0.61 | 0.702 | 0.687 | 0.809 | 0.865 | 0.33 | 0.314 | 0.344 | 0.298 | 0.532 | 0.423 | 0.406 | 0.44 | 0.429 | 0.329 | 0.434 | 0.413 | 0.353 | 0.392 | 0.488
NCI-H2087 | 0.834 | 0.906 | 0.713 | 0.797 | 0.908 | 0.267 | 0.25 | 0.296 | 0.233 | 0.868 |  | 0.752 | 0.686 | 0.705 | 0.266 | 0.762 | 0.598 | 0.402 | 0.56 | 0.302
EBC-1 | 0.173 | 0.201 | 0.168 | 0.182 | 0.202 |  |  |  |  |  |  |  |  |  |  |  |  |  |  | 
NCI-H1648 |  |  |  |  |  | 0.499 | 0.472 | 0.459 | 0.527 | 0.331 | 0.408 | 0.984 | 0.748 | 0.895 | 0.482 | 0.607 | 0.757 | 0.389 | 0.465 | 0.512
NCI-H661 | 0.961 | 0.94 | 1.05 | 0.93 | 1.01 | 0.47 | 0.528 | 0.575 | 0.577 | 0.833 | 0.822 | 0.839 | 0.792 | 0.802 | 0.549 | 0.785 | 0.768 | 0.841 | 0.737 | 0.763
NCI-H596 | 0.986 | 0.966 | 0.929 | 1.02 | 0.965 | 0.889 | 0.967 | 0.997 | 1.07 | 0.713 | 0.638 | 0.743 | 0.589 | 0.454 | 0.979 | 0.682 | 0.65 | 0.609 | 0.486 | 0.642
IA-LM | 0.719 | 0.769 | 0.906 | 0.681 | 0.94 |  |  |  |  | 0.896 | 1.12 | 1.17 | 0.929 | 1.19 |  | 0.735 | 0.951 | 0.843 | 0.947 | 1.03
LC-2-ad | 0.419 | 0.477 | 0.434 | 0.37 | 0.469 | 0.746 | 0.717 | 0.693 | 0.777 | 0.798 | 0.715 | 0.728 | 0.698 | 0.64 | 0.834 | 0.7 | 0.729 | 0.701 | 0.667 | 0.529
Calu-6 | 0.705 | 0.754 | 0.757 | 0.814 | 0.886 |  |  |  |  |  |  |  |  |  |  |  |  |  |  | 
NCI-H2342 |  |  |  |  |  | 0.752 | 0.637 | 0.804 | 0.89 | 0.82 | 0.706 | 0.833 | 0.724 | 0.823 | 0.709 | 0.747 | 0.597 | 0.805 | 0.735 | 0.652
NCI-H1299 | 0.918 | 0.929 | 0.96 | 0.96 | 0.947 |  |  |  |  |  |  |  |  |  |  |  |  |  |  | 
NCI-H1703 | 0.54 | 0.664 | 0.628 | 0.57 | 0.93 |  |  |  |  |  |  |  |  |  |  |  |  |  |  | 
NCI-H1792 | 0.93 | 0.939 | 0.976 | 0.986 | 0.907 | 0.513 | 0.478 | 0.481 | 0.521 |  |  |  |  |  | 0.532 |  |  |  |  | 
NCI-H522 |  |  |  |  |  | 0.634 | 0.64 | 0.686 | 0.621 | 0.949 | 0.868 | 0.978 | 0.873 | 0.859 | 0.637 | 1.02 | 0.886 | 0.808 | 0.941 | 0.806
SW 900 |  |  |  |  |  | 0.404 | 0.417 |  | 0.481 | 0.587 | 0.746 | 0.774 | 0.707 | 0.881 | 0.429 | 0.457 | 0.415 | 0.435 |  | 0.602
NCI-H1395 |  |  |  |  |  | 0.736 | 0.696 | 0.71 | 0.727 | 0.577 | 0.506 | 0.743 | 0.717 | 0.654 | 0.693 | 0.681 | 0.663 | 0.614 | 0.522 | 0.8
NCI-H1793 |  |  |  |  |  |  | 0.475 | 0.476 | 0.579 | 0.832 | 0.87 | 0.823 | 0.877 | 0.872 | 0.58 |  | 0.717 | 0.733 | 0.734 | 0.748
CAL-12T | 0.693 | 0.761 | 0.685 | 0.773 | 0.807 |  |  |  |  | 0.86 | 0.693 | 0.848 | 0.653 | 0.69 |  | 0.894 | 0.699 | 0.787 | 0.705 | 0.799
